Data set [1] concerns early-stage gametocytes (> 85% stage II–III) of P. falciparum (NF54 strain). Description: pLDH assay, early-stage gametocyte viability. Format: cell-based, Plasmodium falciparum. The following applies: n = 3; for IC50 value, Early stage gametocytes: 1–2% gametocytaemia; for IC50: Plasmodium falciparum, NF54, 1–2% gametocytaemia. On the procedure: (§1) The chloroquine-sensitive P. falciparum (NF54 strain) was cultured as described by […] et al. […] Gametocytogenesis initiation, induction and gametocyte culturing was done as described by Reader et al.. […] Both methylene blue (MB) and artemisinin (ART) was used as gametocytocidal drug controls and chloroquine for asexual drug control. Assay data were normalized against untreated Plasmodium parasites and HepG2 cell controls. […] Data were analysed on Microsoft Excel and sigmoidal dose-response curves were plotted using GraphPad Prism (v5). […] Statistical analysis was carried out on GraphPad Prism (v5) using unpaired Student-t test with a level of significance of P < 0.05.

In another data set the test system is HepG2 cells. The experiment in a line: LDH leakage cytotoxicity assay. Format: cell-based. The following applies: for cytotoxicity (toxicity): HepG2, at 20 µg/ml; for In vitro cytotoxicity range: HepG2, concentrations of 2.5, 5, 10, and 20 µg/ml. The protocol:
(§2) Cytotoxicity assays were assessed on the HepG2 cell line (20,000 cells/well) as previously described. […] was as used as cytotoxic positive control. Assay data were normalized against untreated Plasmodium parasites and HepG2 cell controls. […] Data were analysed on Microsoft Excel and sigmoidal dose-response curves were plotted using GraphPad Prism (v5). Unless otherwise stated, all data have been expressed as mean ± SEM (n ≥ 2, carried out in three technical repeats).
(LDH leaks from cells whose membrane has failed.)

Data set [2] concerns late-stage gametocytes of Plasmodium falciparum (NF54 strain). Description: pLDH assay, late-stage gametocyte viability. The data set is classed as cell-based. The settings on record: 72 + 72 h pLDH assay; for IC50: Plasmodium falciparum, NF54, 72 h. On the procedure: as §1
Data set [3] deals with intra-erythrocytic asexual P. falciparum (NF54 strain) parasites. The experiment in a line: pLDH assay, intra-erythrocytic asexual parasites. The following applies: 1% parasitaemia; for IC50 value, Asexual stages: 72 h, n = 2; for IC50: Plasmodium falciparum, NF54, 72 h, n = 2, read-out: IC50 value, Asexual stages (converted). The data set is classed as cell-based, Plasmodium falciparum. On the procedure: as §1

Data set [4] relates to mature, stage-V gametocytes (> 90% stage V). More on the design: method as in PMID 26749441. The settings on record: > 90% stage V gametocytes; cited from earlier work.
Data set [5] in a line: LDH leakage cytotoxicity assay. The data set is classed as cell-based. The following applies: human, HepG2 cells; HepG2, LDH leakage, positive control, n = 3. The protocol:
as §2

The mark [6] stands for this setting: 1–2% gametocytaemia, n = 3, read-out: IC50 value, Late stage gametocytes.
Setting [7] is: unpaired assays, n = 1, technical triplicate, 10-fold serial dilution, read-out: IC50, late-stage gametocytes (drug controls).

The source of these data is publication PMC6408838, “Bioassay-guided isolation and identification of gametocytocidal compounds from Artemisia afra (Asteraceae)” (Malaria Journal, 2019).

In brackets after ≈: the same amount, converted by molar mass. Several values for one entry are separate records, joined by “and”; a condition that tells them apart may be missing. Equal values may be shown once. Read-outs that look alike come from different tables or passages of the source.

In the case of `C=C1C(=O)O[C@H]2C1[C@@H](OC(C)=O)CC(=C)[C@]1(O)C=C[C@@](C)(O)[C@H]21` (stereo partly drawn) [Compound 1, 1α,4α-dihydroxybishopsolicepolide], in data set [1], the “IC50 value, Early stage gametocytes” value stood at 5.6 ± 0.2 µg/mL (≈ 17.5 µM) and half-maximal inhibition (IC50) was put at 17.5 µM. Moreover, in the data set on HepG2 cells, the “cytotoxicity (toxicity)” value is below 10% and the “In vitro cytotoxicity range” value is reported as 0.03–9.47%. Also, the “IC50 value, Late stage gametocytes” value in data set [2] (1–2% gametocytaemia, n = 3) is 2 µg/mL. Also, the “IC50 value, Late stage gametocytes” value in data set [2] (1–2% gametocytaemia, n = 3, listed as 1α,4α-dihydroxybishopsolicepolide) is below 10 µg/mL. Further, the IC50 in data set [2] (setting [6]) was 6.3 µM. In data set [3], the “IC50 value, Asexual stages” value came to 6.0 µg/mL (≈ 18.7 µM); the IC50 was < 10 µg/mL and 18.7 µM.

On to `C[C@@H]1CC[C@H]2[C@@H](C)C(=O)O[C@@H]3O[C@@]4(C)CC[C@@H]1[C@]32OO4` [artemisinin, reference compound], for which the results for the IC50 in data set [4] and in data set [2] (setting [7]) were above 12.5 µM and 0.057 µM, respectively.

Turning to `CN(C)c1ccc2nc3ccc(=[N+](C)C)cc-3sc2c1` [Methylene blue, methylene blue, reference compound], in data set [2] (setting [7]), the IC50 was 0.031 µM.

As for `C=C1C(=O)O[C@H]2[C@H]1[C@@H](OC(C)=O)C[C@@](C)(O)[C@@]13O[C@@H]1[C@@H]1O[C@]1(C)[C@H]23` [Compound 2, yomogiartemin], the “IC50 value, Early stage gametocytes” value was 4.4 ± 0.3 µg/mL (≈ 13.1 µM) in data set [1] and below 10 µg/mL in data set [1] (listed as yomogiartemin). Besides, the IC50 in data set [1] is 13.1 µM; in data set [2] (setting [6]), < 10 µg/mL and 15.8 µM; in data set [3], 11.3 µM. Moreover, in the data set on HepG2 cells, the “cytotoxicity (toxicity)” value is below 10%. Besides, the “In vitro cytotoxicity range” value in the data set on HepG2 cells is 0.40–8.35%. The “IC50 value, Late stage gametocytes” value in data set [2] (1–2% gametocytaemia, n = 3) was found to be 5.3 µg/mL. Further, the “IC50 value, Asexual stages” value in data set [3] was 3.8 ± 1.2 µg/mL (≈ 11.3 µM); in data set [3] (listed as yomogiartemin), below 10 µg/mL.

As for `CC[C@H]1CN2CCc3cc(OC)c(OC)cc3[C@@H]2C[C@@H]1C[C@H]1NCCc2cc(OC)c(OC)cc21` [Emetine, reference compound], the EC50 in data set [5] amounted to 4.7 µg/mL (≈ 9.78 µM). In the data set with HepG2 cells (HepG2, 100 µM, positive control), this compound gave a cytotoxicity above 50%.

For orientation: IC50 means the midpoint of a concentration-inhibition curve. The term EC50 denotes the midpoint of the concentration-response curve. Lower therefore signals an effect from little substance.
